Test results: ChEMBL document CHEMBL4145621, “4-Substituted Benzenesulfonamides Incorporating Bi/Tricyclic Moieties Act as Potent and Isoform-Selective Carbonic Anhydrase II/IX Inhibitors” (J Med Chem, 2018)

Target: Carbonic anhydrase 9 (Homo sapiens, UniProt Q16790)
Test: Inhibition of recombinant human CA9 preincubated for 15 mins by phenol red dye-based stopped-flow CO2 hydration assay

| Ki [nM] | Compound |
| --- | --- |
| 7 | Cc1ncc2c(n1)CCc1cnn(-c3ccc(S(N)(=O)=O)cc3)c1-2 |
| 0.89 | CC1(C)CC(=O)c2cnc(Nc3ccc(S(N)(=O)=O)cc3)nc2C1 |
| 0.73 | NS(=O)(=O)c1ccc(-n2ncc3c2CC(c2ccccc2)CC3=O)cc1 (stereo not given) |
| 0.57 | NS(=O)(=O)c1ccc(-n2ncc3c2-c2cncnc2CC3)cc1 |
| 0.88 | CC1(C)CC(=O)c2cnn(-c3ccc(S(N)(=O)=O)cc3)c2C1 |
| 0.79 | NS(=O)(=O)c1ccc(Nc2ncc3c(n2)CC(c2ccccc2)CC3=O)cc1 (stereo not given) |
| 7.3 | NS(=O)(=O)c1ccc(-n2ncc3c2-c2cnc(-c4ccccc4)nc2CC3)cc1 |
| 0.55 | NS(=O)(=O)c1ccc(Nc2ncc3c(n2)CCCC3=O)cc1 |
| 5.2 | NS(=O)(=O)c1ccc(-n2ncc3c2CCCC3=O)cc1 |

Target: Carbonic anhydrase 1 (Homo sapiens, UniProt P00915)
Test: Inhibition of recombinant human cytosolic CA1 preincubated for 15 mins by phenol red dye-based stopped-flow CO2 hydration assay

Chain of Carbonic anhydrase 1 (P00915 whole entry): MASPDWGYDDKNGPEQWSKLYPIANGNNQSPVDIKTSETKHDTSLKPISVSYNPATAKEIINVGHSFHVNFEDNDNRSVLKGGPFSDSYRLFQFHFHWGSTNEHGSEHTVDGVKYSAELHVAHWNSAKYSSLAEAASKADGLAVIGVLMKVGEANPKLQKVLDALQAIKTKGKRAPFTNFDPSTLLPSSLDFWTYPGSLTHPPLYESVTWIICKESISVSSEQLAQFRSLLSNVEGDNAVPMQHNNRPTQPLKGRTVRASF

| Ki [nM] | Compound |
| --- | --- |
| > 10000 | NS(=O)(=O)c1ccc(-n2ncc3c2-c2cnc(-c4ccccc4)nc2CC3)cc1 |
